Where two headings read alike, the source gives them in different places.
Key:
[1] = system: PDOs that stably express high CEA levels; assay: PDO and ex vivo CD8 T-cell co-culture with TGFβ inhibitor galunisertib; assay type: cell-based, human; details: galunisertib 5 μM or 10 μM; TGFβ 10 ng/ml; cibisatamab 20 nM; ex vivo CD8 T cells, E:T 1:1; two PDO models
Method: PDOs that stably express high CEA levels were combined with ex vivo allogeneic CD8 T cells isolated from healthy donor PBMCs in a 2D co-culture at an effector:target (E:T) ratio of 1:1. T cells were preincubated with TGFβ (10 ng/ml) prior to adding either DP47 or cibisatamab treatment with or without TGFβ inhibitor galunisertib.
The growth of GFP PDOs was tracked by monitoring changes in confluency with fluorescence microscopy and efficacy of the combination therapy assessed by comparing growth reduction from single therapy and combined therapy conditions.
Ex vivo CD8 T cells were isolated from PBMCs as described above and pre-incubated with TGFβ (10 ng/ml) for 72 hours before being combined with tumour cells that were seeded 24 hours before at a density of 5000 tumour cells per well in a 96 well plate as described above (E:T 1:1). On the same day (day 0) the co-culture was treated with either 20 nM of cibisatamab or 20 nM of the untargeted negative control antibody DP47-TCB +/− TGFβ ([…]) +/− galunisertib (5 μM or 10 μM, Tocris). All conditions were plated in triplicates.
(§1) The GFP confluence was quantified every 48-96 hrs over a 12-day period using the GFP confluence application on the Celigo Imaging Cytometer (Nexcelom Bioscience). […] In order to calculate the percentage of growth reduction, the fold change of growth from day 0 to day 12 was calculated and 1 was subtracted. […]

[2] = system: patient-derived colorectal cancer organoid lines (PDOs) with high cell surface CEA expression levels; assay: PDO growth in co-culture with CD8 or CD4 T cells (GFP confluence); assay type: cell-based, human
Method: Three patient-derived colorectal cancer organoid lines (PDOs) with high cell surface CEA expression levels were treated with cibisatamab (20 nM) or the corresponding untargeted control antibody DP47-TCB (see SEQ ID NOs 21 and 22 for VH and VL regions, respectively) (20 nM) either in the presence or absence of recombinant TGFβ1 (10 ng/ml) during 12 days of co-culture with allogeneic CD8 T cells at an Effector:Target ratio of […] (FIG. 1A). Growth of the nuclear GFP labelled organoid cells was monitored by fluorescent microscopy. CD8 T cells had been generated from allogeneic healthy donor cells by extracting peripheral blood mononuclear (PBMCs) cells followed by stimulation with IL-2 and CD3/CD28-beads and expansion in vitro. CD8 T cells and PDOs +/− TGFβ (10 ng/ml) were pre-incubated together for 72 hours prior to the addition of cibisatamab or DP47-TCB.
The same experiment was repeated using two PDO lines and CD4 T cells instead of CD8 T cells (FIG. 1B). CD4+CD25-T cells were isolated from allogeneic healthy donor PBMCs and expanded in vitro as described above.
The initial screen was generated with in vitro expanded and pre-activated CD8 T-cells. […]
In order to calculate the growth of cibisatamab treated PDOs relative to DP47-TCB treated PDOs, the fold change of growth from day 0 to day 12 was calculated and 1 was subtracted. […]
PDOs were harvested with TrypLE Express and neutralised with DMEM/F12 Ham medium (Sigma Aldrich) with 10% FBS. Cells were filtered through a 70 μm filter, counted and re-suspended in RPMI medium (Thermo Fisher) supplemented with 10% FBS (Labtech), 1X Glutamax and 100 units penicillin-streptomycin. […]
as §1

CD8 T-cells = assay: FACS analysis of CD8 T-cells co-cultured with PDOs; assay type: cell-based, human; details: 8 days co-culture with PDOs during CEA-TCB treatment; flow cytometry
Method: FIG. 3. Effect of TGFβ on granzyme expression and proliferation of CD8 T-cells. (A) Granzyme expression in ex vivo CD8 T-cells determined by flow cytometry after 8 days of co-culture with a high cell surface CEA expressing PDO. (B) Proliferation of ex vivo CD8 T-cells treated with either DP47-TCB or cibisatamab assessed by flow cytometry after 8 days of co-culture with a high cell surface CEA expressing PDO. (C) Same as (B) except that co-culture was treated with recombinant TGFβ.
Thus, TGFβ potently suppresses cibisatamab mediated tumor control by blocking proliferation and effector functions.

[3] = system: CEA expressing metastatic CRCs; details: cited from earlier work

Molecule: Cc1cccc(-c2nn3c(c2-c2ccnc4ccc(C(N)=O)cc24)CCC3)n1 [Galunisertib, 4-(5,6-Dihydro-2-(6-methyl-2-pyridinyl)-4H-pyrrolo(1,2-b)pyrazol-3-yl)-6-quinolinecarboxamide]
- reversal of TGFβ effects on cibisatamab activity (PDO growth) [1]: strongly reduced TGFβ effects

Molecule: TGFβ: recombinant TGFβ1 (10 ng/ml, R&D Systems) added to the co-cultures as immunosuppressive factor
- growth of cibisatamab treated PDOs compared to PDOs treated with cibisatamab alone ([2]; TGFβ 10 ng/ml added, day 12, CD8 and CD4 T cells): increased the growth of cibisatamab treated PDOs
- effect of TGFβ on efficacy of cibisatamab ([2]; TGFβ1 10 ng/ml, cibisatamab 20 nM, CD8 and CD4 T cells, 12 days co-culture): impaired the efficacy of cibisatamab
- T-cell granzyme expression (CD8 T-cells): strongly reduced
- proliferation of T-cells (CD8 T-cells): strongly reduced

B1: cibisatamab: T-cell activating bispecific antibody targeting carcinoembryonic antigen (CEA) on tumor cells and CD3 on T-cells (antibody, chains of the INN, looked up, V domains shown)
VH: QVQLVQSGAEVKKPGASVKVSCKASGYTFTEFGMNWVRQAPGQGLEWMGWINTKTGEATYVEEFKGRVTFTTDTSTSTAYMELRSLRSDDTAVYYCARWDFAYYVEAMDYWGQGTTVTVSS
VL: DIQMTQSPSSLSASVGDRVTITCKASAAVGTYVAWYQQKPGKAPKLLIYSASYRKRGVPSRFSGSGSGTDFTLTISSLQPEDFATYYCHQYYTYPLFTFGQGTKLEIK
VH2: B1 VH
VL2: QAVVTQEPSLTVSPGGTVTLTCGSSTGAVTTSNYANWVQEKPGQAFRGLIGGTNKRAPGTPARFSGSLLGGKAALTLSGAQPEDEAEYYCALWYSNLWVFGGGTKLTVL
- antitumor activity with radiological shrinkage, share of patients ([3]; in combination with PD-L1-inhibiting antibodies, 5/10): 50%
- antitumor activity with radiological shrinkage, share of patients ([3]; monotherapy, patients had failed at least two prior chemotherapy regimens, 4/36): 11%
- growth of PDOs relative to DP47-TCB treated (control) PDOs ([2]; cibisatamab 20 nM, day 12, CD8 or CD4 T cells): reduced the growth of PDOs
